Tested on: rabbit skeletal myofibrils (approximately 90% fast fibers)
Assay: Activation of fast skeletal myofibrils (PUMA coupled-enzyme ATPase assay)
Type: biochemical
Conditions: AC1.4 = concentration at which the compound increased the enzymatic activity by 40%; myofibril suspension at calcium level pCa25; PM12 buffer pH 6.8
Description: Preparation of fast skeletal myofibrils. Rabbit skeletal myofibrils were prepared based upon the method of Herrmann et al. (Biochem. 32(28):7255-7263(1993). Myofibrils were prepared from rabbit psoas muscle purchased from Pel-Freez Biologicals (Arkansas) within 2 days of ordering, stored on ice. Minced muscle was homogenized in 10 volumes of ice-cold “standard” buffer (50 mM Tris, pH 7.4, 0.1 M potassium acetate, 5 mM KCl, 2 mM DTT, 0.2 mM PMSF, 10 μM leupeptin, 5 μM pepstatin, and 0.5 mM sodium azide) containing 5 mM EDTA and 0.5% Triton X-100 using an Omni-Macro homogenizer. Myofibrils were recovered by low speed centrifugation (3000 rpm for 10 minutes) and washed 2 times in the Triton X-100 containing buffer to ensure removal of cellular membrane. Following the Triton washes, myofibrils were washed 3 times in “standard” buffer containing 2 mM magnesium acetate. A final wash in assay buffer (12 mM PIPES, pH 6.8, 60 mM KCl, 1 mM DTT) was performed and brought to 10% sucrose for flash freezing in liquid nitrogen and storage at −80° C.
Activation of Fast Skeletal Myofibrils. Fast fiber activators were identified by measuring the enzymatic activity of muscle myofibril preparations using the proprietary PUMA™ (see, e.g., U.S. Pat. Nos. 6,410,254, 6,743,599, 7,202,051, and 7,378,254) assay system. Myofibril preparations consisted of rabbit skeletal muscle (approximately 90% fast fibers) that had been mechanically homogenized and washed with a detergent (triton X-100) to remove cellular membranes. This preparation retained all of the sarcomeric components in a native conformation and the enzymatic activity was still regulated by calcium. Compounds were tested using a myofibril suspension and a level of calcium sufficient to increase enzymatic activity of the myofibrils to 25% of their maximal rate (termed pCa25). Enzymatic activity was tracked via a pyruvate kinase and lactate dehydrogenase-coupled enzyme system. This assay regenerates myosin-produced ADP into ATP by oxidizing NADH, producing an absorbance change at 340 nm. The buffering system was 12 mM Pipes, 2 mM MgCl2, 1 mM DTT at pH 6.8 (PM12 buffer).
Using procedures similar to those described herein, utilizing reagents and intermediates commercially available (e.g., Sigma-Aldrich,) or readily synthesized by one of skill in the art, the compounds in Table 2 were synthesized, characterized and tested. AC1.4 values were determined according to the procedure described in Example 25, and the reported median AC1.4 values are as follows: A=<1 uM; B=1-10 uM; C=10-20 uM; D=>20 uM.

Structure (SMILES)	Mean AC1.4
CC(C)(CNc1ccc(-c2ccc(C(N)=O)cc2)cn1)c1ccc(F)cc1 [4-(6-{[2-(4-fluorophenyl)-2-methylpropyl]amino}-3-pyridyl)benzamide]	B (B=1-10 uM)
NC(=O)c1cccc(-c2cnc(NC[C@]3(c4ncccc4F)C[C@H](F)C3)nn2)c1 [3-[3-({[3-fluoro-1-(3-fluoro(2-pyridyl))cyclobutyl]methyl}amino)-1,2,4-triazin-6-yl]benzamide]	A (A=<1 uM)
CC(=O)NCc1cnc(-c2cnc(NC[C@]3(c4ncccc4F)C[C@H](F)C3)nn2)s1 [N-({2-[3-({[3-fluoro-1-(3-fluoro(2-pyridyl))cyclobutyl]methyl}amino)-1,2,4-triazin-6-yl]-1,3-thiazol-5-yl}methyl)acetamide]	B (B=1-10 uM)
NC(=O)c1cccc(-c2cnc(NCC3(c4ccccn4)CCC3)nn2)c1 [3-(3-{[(2-pyridylcyclobutyl)methyl]amino}-1,2,4-triazin-6-yl)benzamide]	B (B=1-10 uM)
CNC(=O)c1ccc(F)c(-c2cnc(NCC3(c4ncccc4Cl)CC(F)(F)C3)nn2)c1 [{3-[3-({[1-(3-chloro(2-pyridyl))-3,3-difluorocyclobulyl]methyl}amino)(1,2,4-triazin-6-yl)]-4-fluorophenyl}-N-methylcarboxamide]	B (B=1-10 uM)
C[C@H](CNc1ccc(-c2cccc(C(N)=O)c2)cn1)c1ccc(F)cc1 [3-(6-{[(2S)-2-(4-fluorophenyl)propyl]amino}-3-pyridyl)benzamide]	B (B=1-10 uM)
O=C(O)c1ccc(F)c(-c2cnc(NCC3(c4ncccc4F)CCC3)nn2)c1 [4-fluoro-3-[3-({[(3-fluoro(2-pyridyl))cyclobulyl]methyl}amino)(1,2,4-triazin-6-yl)]benzoic acid]	B (B=1-10 uM)
Fc1cccnc1C1(CNc2ncc(-c3ccc4[nH]ncc4c3)nn2)CCC1 [(6-(1H-indazol-5-yl)(1,2,4-triazin-3-yl)){[(3-fluoro(2-pyridyl))cyclobutyl]methyl}amine]	B (B=1-10 uM)
NC(=O)c1ccc(O)c(-c2cnc(NC[C@]3(c4ncccc4F)C[C@H](F)C3)nn2)c1 [3-[3-({[3-fluoro-1-(3-fluoro(2-pyridyl))cyclobulyl]methyl}amino)(1,2,4-triazin-6-yl)]-4-hydroxybenzamide]	A (A=<1 uM)
CC(C)(Nc1ncc(-c2cc(C(=O)NC[C@H](O)CO)ccc2F)nn1)c1ncccc1F [N-((2S)-2,3-dihydroxypropyl)[4-fluoro-3-(3-{[1-(3-fluoro(2-pyridyl))-isopropyl]amino}(1,2,4-triazin-6-yl))phenyl]carboxamide]	C (C=10-20 uM)
NC(=O)c1cccc(-c2cnc(NC[C@]3(c4ncccc4F)C[C@H](F)C3)c(F)c2)c1 [3-[5-fluoro-6-({[3-fluoro-1-(3-fluoro(2-pyridyl))cyclobutyl]methyl}amino)-3-pyridyl]benzamide]	B (B=1-10 uM)
CNC(=O)c1ccc(O)c(-c2cnc(NC[C@]3(c4ncccc4F)C[C@H](F)C3)nn2)c1 [{3-[3-({[3-fluoro-1-(3-fluoro(2-pyridyl))cyclobutyl]methyl}amino)(1,2,4-triazin-6-yl)]-4-hydroxyphenyl}-N-methylcarboxamide]	A (A=<1 uM)
CC(C)(Nc1ncc(-c2cc(CO)ccc2F)nn1)c1ncccc1F [[4-fluoro-3-(3-{[1-(3-fluoro(2-pyridyl))-isopropyl]amino}(1,2,4-triazin-6-yl))phenyl]methan-1-ol]	C (C=10-20 uM)
CC(C)(CNc1ccc(CC(O)CO)cn1)c1ccc(F)cc1 (stereo not drawn) [3-(6-{[2-(4-fluorophenyl)-2-methylpropyl]amino}-3-pyridyl)propane-1,2-diol]	D (D=>20 uM)
CC(C)(Nc1ncc(-c2cccc(C(N)=O)c2)nn1)c1ncccc1F [3-(3-{[1-(3-fluoro(2-pyridyl))-isopropyl]amino}-1,2,4-triazin-6-yl)benzamide]	B (B=1-10 uM)
CC(C)(CNc1ncc(-c2cccc(C(N)=O)c2)nn1)c1ccc(F)cc1 [3-(3-{[2-(4-fluorophenyl)-2-methylpropyl]amino}-1,2,4-triazin-6-yl)benzamide]	B (B=1-10 uM)
CC(C)(Nc1ncc(-n2cc(C(N)=O)cn2)nn1)c1cccc(OC(F)F)n1 [1-[3-({1-[6-(difluoromethoxy)(2-pyridyl)]-isopropyl}amino)-1,2,4-triazin-6-yl]pyrazole-4-carboxamide]	B (B=1-10 uM)

Structure (SMILES)	Mean AC1.4
CC(C)(CNc1ncc(-c2cc(C(N)=O)ccc2F)nn1)c1ncccc1Cl [3-(3-{[2-(3-chloro(2-pyridyl))-2-methylpropyl]amino}(1,2,4-triazin-6-yl))-4-fluorobenzamide]	B (B=1-10 uM)
CC(Nc1ncc(-c2cc(C(N)=O)ccc2F)nn1)c1cccc(OC(F)F)n1 (stereo not drawn) [3-[3-({[6-(difluoromethoxy)(2-pyridyl)]ethyl}amino)(1,2,4-triazin-6-yl)]-4-fluorobenzamide]	C (C=10-20 uM)
CC(C)(Nc1ncc(-c2cc(C(N)=O)ccc2F)nn1)c1ncccc1Cl [3-(3-{[1-(3-chloro(2-pyridyl))-isopropyl]amino}(1,2,4-triazin-6-yl))-4-fluorobenzamide]	B (B=1-10 uM)
NC(=O)c1ccc(F)c(-c2cnc(NCc3cccc(OC(F)F)n3)nn2)c1 [3-[3-({[6-(difluoromethoxy)(2-pyridyl)]methyl}amino)(1,2,4-triazin-6-yl)]-4-fluorobenzamide]	D (D=>20 uM)
CC(C)(Nc1ncc(-c2cc(C(N)=O)ccc2F)nn1)c1cccc(S(C)(=O)=O)c1 [4-fluoro-3-[3-({1-methyl-1-[3-(methylsulfonyl)phenyl]ethyl}amino)(1,2,4-triazin-6-yl)]benzamide]	D (D=>20 uM)
NC(=O)Cc1cnc(-c2cnc(NCC3(c4ncccc4F)CCC3)nn2)s1 [2-{2-[3-({[(3-fluoro-2-pyridyl)cyclobutyl]methyl}amino)-1,2,4-triazin-6-yl]-1,3-thiazol-5-yl}acetamide]	C (C=10-20 uM)
COC(=O)c1ccc(F)c(-c2cnc(NCC3(c4ncccc4Cl)CCC3)nn2)c1 [methyl 3-[3-({[(3-chloro(2-pyridyl))cyclobutyl]methyl}amino)(1,2,4-triazin-6-yl)]-4-fluorobenzoate]	B (B=1-10 uM)
CC(=O)NCc1ccc(F)c(-c2cnc(NC(C)(C)c3ncccc3F)nn2)c1 [N-{[4-fluoro-3-(3-{[1-(3-fluoro(2-pyridyl))-isopropyl]amino}(1,2,4-triazin-6-yl))phenyl]methyl}acetamide]	D (D=>20 uM)
NC(=O)c1cnn(-c2cnc(NC3(c4ncccc4F)CCC3)nn2)c1 [1-(3-{[(3-fluoro-2-pyridyl)cyclobutyl]amino}-1,2,4-triazin-6-yl)pyrazole-4-carboxamide]	D (D=>20 uM)
CC(C)(Nc1ncc(-c2ncc(C(N)=O)s2)nn1)c1cccc(OC(F)F)n1 [2-[3-({1-[6-(difluoromethoxy)(2-pyridyl)]-isopropyl}amino)-1,2,4-triazin-6-yl]-1,3-thiazole-5-carboxamide]	B (B=1-10 uM)
Nc1n[nH]c2ccc(-c3cnc(NCC4(c5ncccc5F)CCC4)nn3)cc12 [[6-(3-amino(1H-indazol-5-yl))(1,2,4-triazin-3-yl)]{[(3-fluoro(2-pyridyl))cyclobutyl]methyl}amine]	B (B=1-10 uM)
CC(C)(Nc1ncc(-c2cc(C(=O)O)ccc2F)nn1)c1ncccc1F [4-fluoro-3-(3-{[1-(3-fluoro(2-pyridyl))-isopropyl]amino}(1,2,4-triazin-6-yl))benzoic acid]	C (C=10-20 uM)
CC(C)(Nc1ncc(-c2ccc(C(N)=O)cc2F)nn1)c1ncccc1F [3-fluoro-4-(3-{[1-(3-fluoro(2-pyridyl))-isopropyl]amino}(1,2,4-triazin-6-yl))benzamide]	D (D=>20 uM)
CC(C)(Nc1ncc(-c2cc(C(N)=O)ccc2F)nn1)c1ccc(F)cc1 [4-fluoro-3-(3-{[1-(4-fluorophenyl)-isopropyl]amino}(1,2,4-triazin-6-yl))benzamide]	A (A=<1 uM)
OCc1cnc(-c2cnc(NCC3(c4ncccc4F)CCC3)nn2)s1 [{2-[3-({[(3-fluoro-2-pyridyl)cyclobutyl]methyl}amino)-1,2,4-triazin-6-yl]-1,3-thiazol-5-yl}methan-1-ol]	C (C=10-20 uM)
CC(C)(Nc1ncc(-c2cc(C(N)=O)ccc2F)nn1)c1cccc(C(F)F)n1 [3-[3-({1-[6-(difluoromethyl)(2-pyridyl)]-isopropyl}amino)(1,2,4-triazin-6-yl)]-4-fluorobenzamide]	B (B=1-10 uM)

Source: patent US9994528B2, “Certain amino-pyridines and amino-triazines, compositions thereof, and methods for their use” (Cytokinetics, Inc., priority 2010, dated 2018)
